Laboratory results as given in PubChem BioAssay AID588372 (Southern Research Specialized Biocontainment Screening …, 2011).
Several values for one entry are separate records, joined by “and”; a condition that tells them apart may be missing. Equal entries are not always repeated. Records with an inconclusive call do not appear. Activity calls are given as the source filed them. The rule behind the calls is not given here.

Tested on: West Nile virus infected cells, antiviral inhibition
Test: inhibition of WNV in infected cells – cell-based, EC_2, dose response (AID 588372)
Details: not given
O=C(CSc1nc2ccccc2c(=O)n1-c1cc(F)c(F)c(F)c1)Nc1ccc2c(c1)CCC2 showed an IC50 of 5.27 µM. O=C(CSc1nc2ccccc2c(=O)n1-c1ccc(F)c(F)c1)Nc1ccc2c(c1)CCC2 gave an IC50 of 5.72 µM. In the case of O=C(CSc1nc2ccccc2c(=O)n1-c1ccccc1)Nc1ccc2c(c1)CCC2, the IC50 is reported as 6.51 µM and 33.3 µM. O=C(CSc1nc2ccccc2c(=O)n1-c1ccc(F)c(Cl)c1)Nc1ccc2c(c1)CCC2 showed an IC50 of 9.05 µM. Compound O=C(CSc1nc2ccccc2c(=O)n1-c1cc(Cl)cc(Cl)c1)Nc1ccc2c(c1)CCC2 has an IC50 of 2.1 µM.

Tested on: not listed separately
Test: as above
Details: West Nile virus infected cells, antiviral inhibition; at 25 µM (top of the series)
With Cn1c(NC(=O)CSc2nc3ccccc3c(=O)n2-c2ccccc2)nc2ccccc21 the inhibition was -2.29% (inactive).

Same assay, conditions: West Nile virus infected cells, antiviral inhibition; at 50 µM (top of the series)
For O=C(CSc1nc2ccccc2c(=O)n1-c1ccc(F)c(F)c1)Nc1nccs1, the inhibition was 0% (inactive). For O=C(CSc1nc2ccccc2c(=O)n1-c1ccc(Cl)c(Cl)c1)NC1CCc2ccccc21 (configuration not stated), the inhibition was 5.24% (inactive). For O=C(CSc1nc2ccccc2c(=O)n1-c1ccc(Cl)c(Cl)c1)Nc1nc2ccc([N+](=O)[O-])cc2s1, the inhibition was -1.43% (inactive). For O=C(CSc1nc2ccccc2c(=O)n1-c1cc(Cl)cc(Cl)c1)Nc1ccc2c(c1)OCO2, the inhibition was -2.43% (inactive). For Cn1c(NC(=O)CSc2nc3ccccc3c(=O)n2-c2ccc(Cl)c(Cl)c2)nc2ccccc21, the inhibition was -1.28% (inactive). With O=C(CSc1nc2ccccc2c(=O)n1-c1cc(Cl)cc(Cl)c1)NC1CCCc2ccccc21 (configuration not stated) the inhibition was 1.62% (inactive). With Cc1nc2cc(NC(=O)CSc3nc4ccccc4c(=O)n3-c3ccc(Cl)c(Cl)c3)ccc2s1 the inhibition was 0.29% (inactive). In the case of O=C(CSc1nc2ccccc2c(=O)n1-c1cc(Cl)cc(Cl)c1)Nc1cccc2c1CCC2, the inhibition is reported as 1.26% (inactive). With O=C(CSc1nc2ccccc2c(=O)n1-c1cc(F)c(F)c(F)c1)NC1CCCc2ccccc21 (configuration not stated) the inhibition was -0.6% (inactive). With O=C(CSc1nc2ccccc2c(=O)n1-c1ccc(Cl)c(Cl)c1)NC1Cc2ccccc2C1 the inhibition was -0.66% (inactive). In the case of O=C(CSc1nc2ccccc2c(=O)n1-c1cc(F)c(F)c(F)c1)Nc1cccc2c1CCC2, the inhibition is reported as 5.49% (inactive). With O=C(CSc1nc2ccccc2c(=O)n1-c1ccc(Cl)c(Cl)c1)NC1CCCc2ccccc21 (configuration not stated) the inhibition was 1.77% (inactive). In the case of O=C(CSc1nc2ccccc2c(=O)n1-c1cc(F)c(F)c(F)c1)NC1Cc2ccccc2C1, the inhibition is reported as 0.07% (inactive).

Same assay, conditions: West Nile virus infected cells, antiviral inhibition; at 100 µM (top of the series)
For O=C(CSc1nc2ccccc2c(=O)n1-c1cc(F)c(F)c(F)c1)Nc1cccc2ccccc12, the inhibition was -1.52% (inactive). In the case of O=C(CCCSc1nc2ccccc2c(=O)n1-c1ccc(Cl)c(Cl)c1)Nc1ccc2c(c1)CCC2, the inhibition is reported as -0.7% (inactive). For O=C(CSc1nc2ccccc2c(=O)n1-c1ccc(F)c(F)c1)Nc1cccc2ccccc12, the inhibition was -1.02% (inactive). In the case of Cc1cnc(NC(=O)CSc2nc3ccccc3c(=O)n2-c2ccc(Cl)c(Cl)c2)s1, the inhibition is reported as -0.85% (inactive). With Cc1csc(NC(=O)CSc2nc3ccccc3c(=O)n2-c2ccc(Cl)c(Cl)c2)n1 the inhibition was -0.04% (inactive). For O=C(CSc1nc2ccccc2c(=O)n1-c1ccc(Cl)c(Cl)c1)Nc1nc(-c2ccccc2)cs1, the inhibition was 0.46% (inactive). For O=C(CSc1nc2ccccc2c(=O)n1-c1ccc(F)c(F)c1)NC1CCCc2ccccc21 (configuration not stated), the inhibition was -0.29% (inactive). In the case of O=C(CSc1nc2ccccc2c(=O)n1-c1ccc(F)c(Cl)c1)NC1CCCc2ccccc21 (configuration not stated), the inhibition is reported as -0.04% (inactive). In the case of O=C(CCSc1nc2ccccc2c(=O)n1-c1cc(Cl)cc(Cl)c1)Nc1ccc2c(c1)CCC2, the inhibition is reported as 1.02% (inactive). With O=C(CSc1nc2ccccc2c(=O)n1-c1cc(F)c(F)c(F)c1)Nc1nccs1 the inhibition was 6.14% (inactive). With O=C(CSc1nc2ccccc2c(=O)n1-c1ccc(F)c(Cl)c1)Nc1nccs1 the inhibition was 7.09% (inactive). For O=C(CCSc1nc2ccccc2c(=O)n1-c1ccc(F)c(Cl)c1)Nc1ccc2c(c1)CCC2, the inhibition was -1.01% (inactive). In the case of O=C(CSc1nc2ccccc2c(=O)n1-c1ccc(Cl)c(Cl)c1)Nc1ccc2scnc2c1, the inhibition is reported as 0.04% (inactive). With O=C(CCCCSc1nc2ccccc2c(=O)n1-c1cc(Cl)cc(Cl)c1)Nc1ccc2c(c1)CCC2 the inhibition was 0.66% (inactive). With O=C(CCCCSc1nc2ccccc2c(=O)n1-c1ccc(F)c(Cl)c1)Nc1ccc2c(c1)CCC2 the inhibition was 0.07% (inactive). In the case of O=C(CCCCSc1nc2ccccc2c(=O)n1-c1ccc(Cl)c(Cl)c1)Nc1ccc2c(c1)CCC2, the inhibition is reported as 3.07% (inactive). For O=C(CSc1nc2ccccc2c(=O)n1-c1ccc(F)c(F)c1)NC1Cc2ccccc2C1, the inhibition was -0.73% (inactive). With O=C(CSc1nc2ccccc2c(=O)n1-c1ccc(F)c(F)c1)Nc1ccc2c(c1)OCO2 the inhibition was -1.66% (inactive). In the case of O=C(CSc1nc2ccccc2c(=O)n1-c1ccc(F)c(Cl)c1)Nc1cccc2c1CCC2, the inhibition is reported as -0.11% (inactive). In the case of O=C(CSc1nc2ccccc2c(=O)n1-c1ccc(F)c(Cl)c1)Nc1cccc2ccccc12, the inhibition is reported as -0.86% (inactive). In the case of O=C(CSc1nc2ccccc2c(=O)n1-c1ccc(Cl)c(Cl)c1)Nc1nc2cc(Cl)ccc2o1, the inhibition is reported as 6.36% (inactive). In the case of O=C(CSc1nc2ccccc2c(=O)n1-c1ccc(F)c(Cl)c1)Nc1ccc2c(c1)OCO2, the inhibition is reported as -0.94% (inactive). For O=C(CSc1nc2ccccc2c(=O)n1-c1ccc(F)c(Cl)c1)NC1Cc2ccccc2C1, the inhibition was -1.39% (inactive). For O=C(CSc1nc2ccccc2c(=O)n1-c1ccc(F)c(Cl)c1)NC1CCc2ccccc21 (configuration not stated), the inhibition was 1.01% (inactive). For O=C(CSc1nc2ccccc2c(=O)n1-c1cc(F)c(F)c(F)c1)Nc1ccc2c(c1)OCO2, the inhibition was 3.29% (inactive). With O=C(CCSc1nc2ccccc2c(=O)n1-c1ccc(F)c(F)c1)Nc1ccc2c(c1)CCC2 the inhibition was -1.31% (inactive). In the case of O=C(CSc1nc2ccccc2c(=O)n1-c1ccc(F)c(F)c1)Nc1cccc2c1CCC2, the inhibition is reported as 0% (inactive). For O=C(CCCCSc1nc2ccccc2c(=O)n1-c1ccc(F)c(F)c1)Nc1ccc2c(c1)CCC2, the inhibition was 0.53% (inactive). With O=C(CSc1nc2ccccc2c(=O)n1-c1ccc(Cl)c(Cl)c1)Nc1ncc([N+](=O)[O-])s1 the inhibition was 0.32% (inactive). For O=C(COc1nc2ccccc2c(=O)n1-c1ccccc1)Nc1ccc2c(c1)CCC2, the inhibition was 5.92% (inactive). With O=C(CSc1nc2ccccc2c(=O)n1-c1ccc(Cl)c(Cl)c1)Nc1cccc(-c2ccccc2)c1 the inhibition was -1.24% (inactive). With O=C(CCCCSc1nc2ccccc2c(=O)n1-c1cc(F)c(F)c(F)c1)Nc1ccc2c(c1)CCC2 the inhibition was 11.5% (inactive). For O=C(CSc1nc2ccccc2c(=O)n1-c1ccc(Cl)c(Cl)c1)N1CCCCCC1, the inhibition was 1.13% (inactive).
